Drawing on ChEMBL document CHEMBL4418308, “cGAS ANTAGONIST COMPOUNDS” (2017), this text covers IC50 for 93 molecules.

This assay concerns the target Cyclic GMP-AMP synthase (Homo sapiens, UniProt Q8N884). Kind of assay: Inhibition of recombinant His6-SUMO tagged human CGAS expressed in Escherichia coli BL21/pLys cells incubated for 20 mins by Kinase Glo chemiluminescence assay. On the technique in general: Kinase-Glo reads ATP consumption through a luciferase reaction.

Chain of Cyclic GMP-AMP synthase (Q8N884 whole entry): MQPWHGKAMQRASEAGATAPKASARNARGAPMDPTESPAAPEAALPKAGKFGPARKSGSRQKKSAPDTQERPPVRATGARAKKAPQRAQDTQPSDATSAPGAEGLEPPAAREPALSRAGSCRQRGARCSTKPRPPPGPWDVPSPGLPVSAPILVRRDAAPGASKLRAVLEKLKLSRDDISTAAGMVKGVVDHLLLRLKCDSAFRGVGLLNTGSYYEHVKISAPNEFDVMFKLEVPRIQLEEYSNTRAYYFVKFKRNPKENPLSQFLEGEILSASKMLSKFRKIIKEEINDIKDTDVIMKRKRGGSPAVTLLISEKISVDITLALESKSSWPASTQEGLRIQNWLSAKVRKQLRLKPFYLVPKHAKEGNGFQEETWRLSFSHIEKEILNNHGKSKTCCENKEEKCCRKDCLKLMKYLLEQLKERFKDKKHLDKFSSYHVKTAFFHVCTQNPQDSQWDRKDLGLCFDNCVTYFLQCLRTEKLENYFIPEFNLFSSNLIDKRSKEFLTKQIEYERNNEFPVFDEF

What is called IC50 is the concentration that inhibits the measured activity by half. With `COc1cc(/C=C2\Sc3ncccc3C2=O)c(Br)cc1Oc1cnc(N)s1`, the IC50 is at least 10 µM. To `COc1cc(/C=C2\SC(=O)N(C)C2=S)c(Br)cc1O` belongs at most 0.5 µM; to `COc1cc(/C=C2\SC(=O)N(C)C2=O)c(Br)cc1Oc1nncs1`, at least 10 µM; to `COc1cc(/C=C2\SC(=O)N(C)C2=O)c(Br)cc1NS(=O)(=O)c1ccccc1`, at least 10 µM.

With `CN1C(=O)S/C(=C\c2cc(OCc3ccc4ncccc4c3)c(O)cc2Br)C1=O`, the IC50 was at least 10 µM. With `COc1nc([S+](C)[O-])ncc1COc1cc(/C=C2\SC(=O)N(C)C2=O)c(Br)cc1O` (stereo not drawn) the figure was at least 10 µM.

Take `COc1cc(/C=c2\sc3n(c2=O)CCCN=3)c(Br)cc1O`: the IC50 was at least 10 µM.

On to `CN1C(=O)S/C(=C\c2cc(Oc3cccc4c3COCC4)c(O)cc2Br)C1=O`, for which the concentration for half-maximal inhibition (IC50) was at least 10 µM. To `O=C1/C(=C/c2cc3oc(=O)[nH]c3cc2Br)Sc2ncccc21` belongs at least 10 µM. With `CC(=O)c1cc(N)ccc1Oc1cc(/C=C2\SC(=O)N(C)C2=O)c(Br)c(F)c1O` the figure was at least 10 µM; with `CN1C(=O)S/C(=C\c2ccc(O)cc2Br)C1=O`, at least 10 µM. To `COc1cc(/C=C2\SC(=O)N(C)C2=O)c(C#N)cc1O` belongs at least 10 µM; to `CN1C(=O)S/C(=C\c2cc(OCc3cncc(NC(=O)c4ccncc4)c3)c(O)cc2Br)C1=O`, at least 10 µM.

Turning to `CN1C(=O)S/C(=C\c2cc(OCc3cnc(NC(=O)c4ccncc4)nc3)c(O)cc2Br)C1=O`, the IC50 was at most 0.5 µM. To `CN1C(=O)S/C(=C\c2cc(OCC3CCN(C(=O)c4cccnc4)CC3)c(O)cc2Br)C1=O` belongs 0.5 to 10 µM; to `O=C1/C(=C/c2cc(OCc3cnc(NCc4cccnc4)nc3)c(O)cc2Br)Sc2ncccc21`, at most 0.5 µM.

As to `CN1C(=O)S/C(=C\c2cc(OCc3cnc(N4CCOCC4)nc3)c(O)cc2Br)C1=O`, the IC50 was at least 10 µM. With `CN1C(=O)S/C(=C\c2cc(Oc3ccnc(N)c3)c(O)cc2Br)C1=O` the figure was at least 10 µM. Regarding `O=C1/C(=C/c2cc(OCc3ccncc3)c(O)cc2Br)Sc2ncccc21`, the half-inhibitory concentration (IC50) was at most 0.5 µM.

`CSc1ncc(COc2cc(/C=C3\SC(=O)N(C)C3=O)c(Br)cc2O)c(SC)n1`: the IC50 is at least 10 µM. `CN1C(=O)S/C(=C\c2cc(OCc3ccnc(N)n3)c(O)cc2Br)C1=O`: the IC50 lay within 0.5 to 10 µM.

Take `Cc1nc(N)ncc1C(C)Oc1cc(/C=C2\Sc3ncccc3C2=O)c(Br)c(F)c1O` (stereo not drawn): the IC50 is at most 0.5 µM. With `Nc1ncc(/C=C/c2cc(/C=C3\Sc4ncccc4C3=O)c(Br)cc2O)cn1` the figure was at most 0.5 µM; with `CN1C(=O)S/C(=C\c2cc(OCC3CCN(C(=O)c4ccncc4)CC3)c(O)cc2Br)C1=O`, at least 10 µM; with `CN1C(=O)S/C(=C\c2cc(OCc3ccccc3)c(O)cc2Br)C1=O`, at least 10 µM. With `CN1C(=O)S/C(=C\c2cc(OCc3ccn(Cc4ccccc4)c(=O)c3)c(O)cc2Br)C1=O` the figure was at least 10 µM; with `O=C1NC(=O)/C(=C/c2ccnnc2)N1`, at least 10 µM; with `CC(=O)c1cc(/C=C2\SC(=O)N(C)C2=O)c(Br)cc1Oc1cnc(N)s1`, at least 10 µM. To `COc1cc(/C=C2\SC(=O)N(C)C2=O)c(Br)cc1-c1nn[nH]n1` belongs at least 10 µM; to `CN1C(=O)S/C(=C\c2cc(OCc3ccnc4ccccc34)c(O)cc2Br)C1=O`, at least 10 µM. With `O=C1/C(=C/c2ccc(O)cc2Br)Sc2ncccc21`, the IC50 was at most 0.5 µM.

As to `CSc1cc(/C=C2\SC(=O)N(C)C2=O)c(Br)cc1O`, the IC50 fell in the range of 0.5 to 10 µM. With `CC/N=C1/S/C(=C\c2cc(OC)c(O)cc2Br)C(=O)N1C` the figure was at least 10 µM.

As to `COc1cc(/C=c2\sc3n(c2=O)CCN=3)c(Br)cc1O`, the 50% inhibitory concentration (IC50) is at least 10 µM. With `N=C1NC(=O)/C(=C/c2ccncc2)S1` the figure was at least 10 µM; with `CN1C(=O)S/C(=C\c2cc(OCC(F)(F)c3cnc(N)nc3)c(O)c(F)c2Br)C1=O`, 0.5 to 10 µM; with `CN1C(=O)S/C(=C\c2cc(Oc3ccc([N+](=O)[O-])nc3)c(O)cc2Br)C1=O`, at least 10 µM. As for `CC(C)COc1cc(/C=C2\SC(=O)N(C)C2=O)c(Br)cc1O`, the 50% inhibitory concentration (IC50) is at least 10 µM. To `Cc1cnccc1/C=C1\SC(=O)NC1=O` belongs at most 0.5 µM; to `CN1C(=O)S/C(=C\c2cc(OCCc3ccncc3)c(O)cc2Br)C1=O`, 0.5 to 10 µM; to `COc1cc(/C=C2\Sc3ncccc3C2=O)c(C)cc1O`, 0.5 to 10 µM. To `CN1C(=O)S/C(=C\c2cc(OCc3cnc(N)nc3C3CC3)c(O)c(F)c2Br)C1=O` belongs 0.5 to 10 µM.

With `CCc1cc(/C=C2\SC(=O)N(C)C2=O)c(Br)cc1O`, the half-inhibitory concentration (IC50) was in the range of 0.5 to 10 µM. To `COc1cc(/C=C2\Sc3ncncc3C2=O)c(Br)cc1O` belongs 0.5 to 10 µM; to `CN1C(=O)S/C(=C\c2cc(OCc3cncnc3O)c(O)cc2Br)C1=O`, at most 0.5 µM. Turning to `CN1C(=O)S/C(=C\c2cc(OCc3ccc(NC(=O)c4ccccn4)nc3)c(O)cc2Br)C1=O`, the IC50 is at least 10 µM. With `COc1cc(/C=C2\Sc3ncccc3C2=O)c(Br)c(Br)c1O` the figure was at least 10 µM. In the case of `CC(Oc1cc(/C=C2\SC(=O)N(C)C2=O)c(Br)c(F)c1O)C(O)c1cncnc1N` (stereo not drawn), the IC50 was at most 0.5 µM. To `CN1C(=O)S/C(=C\c2cc(OCc3cncc(NC(=O)c4cccnc4)c3)c(O)cc2Br)C1=O` belongs at least 10 µM; to `COCCNc1ncc(C(C)Oc2cc(/C=C3\SC(=O)N(C)C3=O)c(Br)cc2O)cn1` (stereo not drawn), 0.5 to 10 µM. Turning to `CN1C(=O)S/C(=C\c2cc(OCc3cnc(Nc4ccncc4)nc3)c(O)cc2Br)C1=O`, the IC50 is at most 0.5 µM.

Regarding `CN1C(=O)S/C(=C\c2cc(OCc3cnc(Nc4ccccn4)nc3)c(O)cc2Br)C1=O`, the IC50 was at least 10 µM. To `CN1C(=O)S/C(=C\c2cc(OCc3cnc(NCc4ccccn4)nc3)c(O)c(F)c2Br)C1=O` belongs at least 10 µM; to `COc1cccc(Oc2cc(/C=C3\SC(=O)N(C)C3=O)c(Br)cc2O)c1N`, at least 10 µM; to `CN1C(=O)S/C(=C\c2cc3c(-c4ccc(N)cc4)c[nH]c3cc2Br)C1=O`, 0.5 to 10 µM. Consider `CN1C(=O)S/C(=C\c2cc(OCc3cnc(N4CCCC4)nc3)c(O)cc2Br)C1=O`, for which the half-inhibitory concentration (IC50) was at least 10 µM.

For `CCc1cc(/C=C2\Sc3ncccc3C2=O)c(Br)cc1O`, the IC50 is at most 0.5 µM. To `CN1C(=O)S/C(=C\c2cc(Oc3cnc(N)s3)c(O)c(F)c2Br)C1=O` belongs 0.5 to 10 µM; to `CN1C(=O)S/C(=C\c2cc(OCc3cncc(NCc4ccncc4)c3)c(O)cc2Br)C1=O`, at least 10 µM; to `CN1C(=O)S/C(=C\c2cc(OCc3cnc([S+](C)[O-])nc3Cl)c(O)cc2Br)C1=O` (stereo not drawn), at least 10 µM.

`O=C1NC(=O)/C(=C/c2ccncc2)S1`: the concentration for half-maximal inhibition (IC50) is at most 0.5 µM. Regarding `COc1cc(/C=C2\SC(=O)N(C)C2=O)c(Br)cc1Oc1cnc(NCc2cccnc2)s1`, the IC50 is at least 10 µM. Take `CC(Oc1cc(/C=C2\SC(=O)N(C)C2=O)c(Br)cc1O)c1cncnc1` (stereo not drawn): the half-maximal inhibitory concentration (IC50) was in the range of 0.5 to 10 µM. To `O=C1NC(=O)/C(=C/c2ccncc2)N1` belongs 0.5 to 10 µM; to `COc1cc(/C=C2\SC(=O)N(C)C2=O)c(Br)cc1Oc1cnc(NCc2ccncc2)s1`, at least 10 µM. To `CN1C(=O)S/C(=C\c2cc3cc[nH]c3c(F)c2Br)C1=O` belongs 0.5 to 10 µM; to `CC(C)c1cc(/C=C2\Sc3ncccc3C2=O)c(Br)cc1O`, at least 10 µM. To `COc1cc(/C=C2\SC(=O)N(C)C2=O)c(C(F)(F)F)cc1O` belongs at least 10 µM; to `O=C1NC(=O)/C(=C2\CCCc3cnccc32)S1`, at most 0.5 µM.

On to `COc1cc(/C=c2\sc3n(c2=O)CCCN=3)c(Cl)cc1O`, for which the IC50 was at least 10 µM.

Turning to `CNc1ncc(COc2cc(/C=C3\SC(=O)N(C)C3=O)c(Br)c(F)c2O)cn1`, the IC50 was at most 0.5 µM.

Take `CSc1ncc(COc2cc(/C=C3\SC(=O)N(C)C3=O)c(Br)cc2O)cn1`: the IC50 was at least 10 µM. To `Cc1ncc(COc2cc(/C=C3\Sc4ncccc4C3=O)c(Br)cc2O)c(C)n1` belongs at most 0.5 µM. To `O=C1NC(=O)/C(=C/c2c[nH]cn2)S1` belongs at least 10 µM. Take `CC(C)C(=O)Nc1cncc(COc2cc(/C=C3\SC(=O)N(C)C3=O)c(Br)cc2O)c1`: the 50% inhibitory concentration (IC50) is at least 10 µM. With `C/N=C1/S/C(=C\c2cc(OC)c(O)cc2Br)C(=O)N1C` the figure was at least 10 µM; with `COc1cc(/C=C2\SC(=O)N(C)C2=O)c(Br)cc1NS(=O)(=O)c1ccc(C)cc1`, at least 10 µM.

`O=C1/C(=C/c2cc(C(F)(F)F)c(O)cc2Br)Sc2ncccc21`: the half-inhibitory concentration (IC50) was at most 0.5 µM. Turning to `COc1cc(/C=C2\SC(=O)N(C)C2=O)c(C)cc1O`, the half-inhibitory concentration (IC50) fell in the range of 0.5 to 10 µM. In the case of `O=C1NC(=O)/C(=C/c2ccncc2C(F)(F)F)S1`, the IC50 is at least 10 µM. With `Cc1ncc(COc2cc(/C=C3\SC(=O)N(C)C3=O)c(Br)c(F)c2O)cn1` the figure was 0.5 to 10 µM; with `CN1C(=O)S/C(=C\c2cc(OCc3cnc(O)nc3)c(O)cc2Br)C1=O`, at least 10 µM. With `CN1C(=O)S/C(=C\c2cc(CCc3cnc(N)nc3)c(O)cc2Br)C1=O` the figure was 0.5 to 10 µM. To `CN1C(=O)S/C(=C\c2cc(Oc3ccc(-c4ccncc4)cc3)c(O)cc2Br)C1=O` belongs at least 10 µM.

On to `CN1CCN(c2ncc(COc3cc(/C=C4\SC(=O)N(C)C4=O)c(Br)cc3O)cn2)CC1`, for which the half-inhibitory concentration (IC50) was at least 10 µM. To `COc1cc(/C=C2\SC(=O)N(C)C2=O)c(Br)cc1Oc1ccncc1` belongs at least 10 µM. With `COc1nc(N)ncc1COc1cc(/C=C2\SC(=O)N(C)C2=O)c(Br)cc1O` the figure was at least 10 µM; with `CN1C(=O)S/C(=C\c2cc(Oc3ccc(=O)[nH]c3)c(O)cc2Br)C1=O`, 0.5 to 10 µM; with `CN1C(=O)S/C(=C\c2cc(OCc3cnc(NCc4ccncc4)nc3)c(O)c(F)c2Br)C1=O`, at most 0.5 µM. On to `CN1C(=O)S/C(=C\c2cc(Oc3ccc(-c4ccccn4)cc3)c(O)cc2Br)C1=O`, for which the IC50 was at least 10 µM. With `CN1C(=O)S/C(=C\c2cc(OCCc3cnc(N)nc3N)c(O)c(F)c2Br)C1=O` the figure was at most 0.5 µM; with `CN1C(=O)S/C(=C\c2cc(OCc3cnc(S(C)(=O)=O)nc3Cl)c(O)cc2Br)C1=O`, at least 10 µM. To `CCC/N=C1/S/C(=C\c2cc(OC)c(O)cc2Br)C(=O)N1C` belongs at least 10 µM.
